The record followed here is paper PMC5768343, “A natural inhibitor of kidney-type glutaminase: a withanolide from Physalis pubescens with potent anti-tumor activity” (Oncotarget, 2017).

In test [1] the target is T1, catalytic domain of human KGA (cKGA) (Homo sapiens, UniProt O94925).
T1 sequence (O94925 221-553): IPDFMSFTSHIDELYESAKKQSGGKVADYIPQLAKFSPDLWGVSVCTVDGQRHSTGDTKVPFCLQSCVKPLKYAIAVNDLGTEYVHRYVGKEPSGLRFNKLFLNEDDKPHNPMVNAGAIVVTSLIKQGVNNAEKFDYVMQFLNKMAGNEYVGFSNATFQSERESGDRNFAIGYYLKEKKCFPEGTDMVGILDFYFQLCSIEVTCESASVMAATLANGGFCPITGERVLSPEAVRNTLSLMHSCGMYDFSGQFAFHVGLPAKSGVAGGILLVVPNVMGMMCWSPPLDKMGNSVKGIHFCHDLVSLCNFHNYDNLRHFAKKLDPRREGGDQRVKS
Briefly: In vitro KGA enzyme inhibition assay (GDH-coupled, NADH absorbance 340 nm). Type of test: biochemical. As to the method:
To validate the finding of the virtual ligand screening, the catalytic domain of human KGA (cKGA) was expressed by recombinant technique. […] Enzyme kinetics has been measured to explore the mode of inhibition.
Specific details were referenced to our previous work. Briefly, The catalytical domain of human KGA (cKGA) encoding amino acids 221–553 was cloned into pET26b vector with C-terminal His tag. The cKGA was then expressed in E.coli BL21 (DE3)-RIL-Condon plus. Cultures were grown in LB media contain 35 mg/L kanamycin at 37°C to OD value in 0.6–0.8, then induced at 16°C with 0.4 mM IPTG for 16 h. Cultures were harvested by centrifugation at 3500 g for 8 minutes. Cell pellets were sonicated in a buffer containing 50 mM Hepes (pH 7.5), 500 mM NaCl, 5mM imidazole, […], 1 mM DTT, 0.1% Triton X-100, and final 1 mM PMSF (Sigma-Aldrich USA). The cKGA were purified by affinity chromatography by Ni-NTA agarose, and further purified by size exclusion chromatography (Superdex 200, GE-health care, USA). The purified cKGA was stored in buffer containing 20 mM Hepes (pH 7.5), 200 mM NaCl, 10% glycerol and 3 mM DTT.
The KGA profiling assays were to evaluate the compound-dependent inhibition of KGA in vitro catalytic assay. Specific details were referenced to our previous work. Briefly, the KGA catalyzed the glutamine into glutamate plus ammonium, and then glutamate plus NAD converted to α-ketoglutarate and NADH by the catalysis of GDH. The elevated absorbance at 340 nm with the form of NADH was recorded using a microplate reader. The enzymatic activity was measured in 100 μL system. Mixed buffer containing 0.15 M K2HPO4, 50 mM Tris-Acetate pH 8.6, 0.1 mg/mL bovine serum albumin (BSA), 0.25 mM EDTA, 1 mM DTT, 4 mM NAD were prepared. Then, 10 mM glutamine, 1 unit of glutamate dehydrogenase (GDH) and inhibitor were added in the mix. Final concentration of 1 μM cKGA was added to initiate the reaction. Generation of NADH was monitored by 340 nm absorbance every minute for 20 minutes at 37°C. The IC50 values were calculated by fitted regression equation using the-log plot (GraphPad Prism). Each value was on behalf of the means ± SD of three independent tests, each with three replicates.

The target in another test is T2, KGA (recombinant cKGA) (Homo sapiens, UniProt O94925).
T2 construct: human KGA (cKGA) encoding amino acids 221–553 was cloned into pET26b vector; His tag (C); made in house; host or cells: E. coli BL21 (DE3)-RIL-Codon plus
T2 sequence (O94925 221-553): T1 sequence (O94925 221-553)
Nature of the test: Microscale thermophoresis (MST) binding assay. The conditions noted are these: labeled KGA 200 nM, 26°C. The text has this:
Specific details were referenced to our previous work.

Test [2] has as its system human normal liver cell LO2. Nature of the test: CCK8 cytotoxicity / proliferation assay, LO2. Type of test: cell-based. To be noted: CCK8, 48 h. As for the experimental part:
(§1) The experiment was performed in triplicate.

In test [3] the test system is erlotinib-resistant human non-small cell lung cancer cells (HCC827-ER). Briefly: CCK8 cytotoxicity / proliferation assay, HCC827-ER. Type of test: cell-based. As to the method:
as §1

The test system of test [4] is human fibrosarcoma cells (HT1080). Nature of the test: CCK8 cytotoxicity assay, HT1080. Type of test: cell-based. To be noted: HT-1080, CCK8, 48 h.
Experimental: (§4) The SW1990, HT1080, and A375-S2 human tumor cell lines were obtained from ATCC (Manassas, VA, USA). […] SW1990, HT1080, and LO2 cells were cultured in DMEM medium with 10% fetal bovine serum (FBS). All of these cells were cultured at 37°C in a humidified atmosphere with 5% CO2. To estimate cell viability, cells (5000/well) were separately seeded in 96-well plates for 24 h at 37°C in a 5% CO2 incubator. […] All the experiments were performed in triplicate, and the mean absorbance values were calculated. The IC50 values of the compounds were derived from the mean OD values of the triplicate tests versus the drug concentration curves.
Test [5] concerns glutamine metabolism in SW1990 cells. Briefly: Intracellular metabolite levels and NADPH/NADP+, SW1990. Type of test: cell-based, human. The conditions noted are these: SW1990, 2.5 or 5 μM, 4 hours. As to the method:
(§2) Blocking glutamine metabolism can inhibit the growth and proliferation of glutamine-dependent cells, mainly because of blocking the production and utilization of glutamine metabolites. The effects of different concentrations of physapubescin K on the intracellular glutamine and its downstream metabolites were examined. […] And the same effect could also be seen in Hcc827-ER cells (Figure 7C).
(§3) NADPH/NADP^+ ratio was determined by using NADP^+/NADPH Quantification Colorimetric Kit (BioVision, #K347-100). The abundance of intracellular glutamine (KeyGen, Nanjing, China A124), glutamate (KeyGen, Nanjing, China A074), (BioVision, #K778), aspartate (BioVision, #K552), oxaloacetate (BioVision, #K659) and malate (BioVision, #K637) was determined by using quantification kits, according the manufacturer’s instruction. Briefly, 5 × 10^6 cells (10-cm dishes) were collected during log-phase growth by cell scraper, homogenized in 0.2 mL of provided buffers (on ice), and centrifuged at 4°C for 10 min at 13,000 g. Supernatants were deproteinized using 10 K Ultrafiltration tube (Millipore, USA), analyzed and compared to standard curves. The signals obtained were normalized to the protein concentration calculated upon processing a parallel 10-cm dish.

The subject of test [6] is glutamine metabolism in T47D cells. Briefly: Intracellular metabolite levels, T47D. Type of test: cell-based, human. To be noted: 2.5 or 5 μM, 4 hours. As for the experimental part: as §2, §3
Test [7] has as its system human pancreatic cancer cells (SW1990). Nature of the test: CCK8 cytotoxicity / proliferation assay, SW1990. To be noted: for relative cell vitality: CCK8.
Experimental: as §4
Cell proliferation was assessed by incubating them with Cell Counting Kit-8 reagents (Dojindo, Shanghai, China) for 24 h, 48 h, 72 h, 96 h at 37°C and measuring the absorbance at 450 nm. The experiment was performed in triplicate.

The structures appear in SMILES notation.

On to `CO[C@H]1O[C@@H]([C@@H](C)[C@H]2C[C@H](OC(C)=O)[C@H]3[C@@H]4C[C@H]5O[C@]56[C@@H](O)C=CC(=O)[C@]6(C)[C@H]4CC[C@@]32C)C[C@]2(C)O[C@]12C` [physapubescin K], for which the IC50 in test [1] (1 μM cKGA, 10 mM glutamine, 37°C) amounted to 520 ± 60 nM; in test [2], 11700 ± 320 nM; in test [3] (Homo sapiens, HCC827ER, CCK8, 48 h) it was 720 ± 220 nM; in test [4], 2850 ± 600 nM; in test [7] (Homo sapiens, SW1990, 48 h, read-out: IC50 SW1990), 2210 ± 10 nM. Further, the “catalytic rate of cKGA” value in test [1] (5 μM compound, after substrate concentration was increased from 10 mM to 40 mM (0 at 10 mM)) is listed as 0.02 ∆OD/min. In addition, the “inhibition of the activity of KGA” value in test [1] (5 μM compound, substrate concentration 10 mM) was “completely inhibit”. In addition, the mode of inhibition result in test [1] (higher concentration, increases in Km for glutamine) was “competitive”; in test [1] (low concentration, decrease in Vmax, little effect on Km for glutamine) it was “non-competitive”. Moreover, the reversibility of inhibition entry in test [1] (saturated inhibition assay, 5 μM) was “reversible”. The Kd on KGA (recombinant cKGA) was determined as 3030 ± 380 nM. Besides, the “sensitivity of cell growth to treatment” value was “sensitive” in test [3] (HCC827-ER, 1 μM) and “sensitive” in test [7] (SW1990, 1 μM). Besides, the consumption of glutamine entry in test [5] is given as “significantly reduce”. In addition, the “production of glutamic acid and its downstream metabolites (oxaloacetic acid, aspartic acid, malic acid)” value in test [5] was “decrease”. In test [5], the “proportion of NADPH/NADP+” value is on record as “significantly reduced”. Further, the “effects on glutamine metabolism” value in test [6] is on record as “moderate effects”. Also, the relative cell vitality in test [7] (SW1990, 2 μM, 24 h) is given as 50.3%; in test [7] (SW1990, 2 μM, 36 h), 37.6%; in test [7] (SW1990, 2 μM, 48 h), 27.3%. Also, the cell proliferation result in test [7] (SW1990, 2 μM, alleviated by addition of 4 mM glutamate) is given as “significantly inhibited cell proliferation”.
